Structures are written as SMILES. Some results are limits rather than exact numbers.

The assay deals with T1, ATM (Homo sapiens, UniProt Q13315).
T1 construct: detecting phosphorylation of Chk2 in a human non-small cell lung cancer cell line NCI-H460 (ATCC company); host or cells: NCI-H460 human non-small cell lung cancer cells
T1 sequence (Q13315 whole entry): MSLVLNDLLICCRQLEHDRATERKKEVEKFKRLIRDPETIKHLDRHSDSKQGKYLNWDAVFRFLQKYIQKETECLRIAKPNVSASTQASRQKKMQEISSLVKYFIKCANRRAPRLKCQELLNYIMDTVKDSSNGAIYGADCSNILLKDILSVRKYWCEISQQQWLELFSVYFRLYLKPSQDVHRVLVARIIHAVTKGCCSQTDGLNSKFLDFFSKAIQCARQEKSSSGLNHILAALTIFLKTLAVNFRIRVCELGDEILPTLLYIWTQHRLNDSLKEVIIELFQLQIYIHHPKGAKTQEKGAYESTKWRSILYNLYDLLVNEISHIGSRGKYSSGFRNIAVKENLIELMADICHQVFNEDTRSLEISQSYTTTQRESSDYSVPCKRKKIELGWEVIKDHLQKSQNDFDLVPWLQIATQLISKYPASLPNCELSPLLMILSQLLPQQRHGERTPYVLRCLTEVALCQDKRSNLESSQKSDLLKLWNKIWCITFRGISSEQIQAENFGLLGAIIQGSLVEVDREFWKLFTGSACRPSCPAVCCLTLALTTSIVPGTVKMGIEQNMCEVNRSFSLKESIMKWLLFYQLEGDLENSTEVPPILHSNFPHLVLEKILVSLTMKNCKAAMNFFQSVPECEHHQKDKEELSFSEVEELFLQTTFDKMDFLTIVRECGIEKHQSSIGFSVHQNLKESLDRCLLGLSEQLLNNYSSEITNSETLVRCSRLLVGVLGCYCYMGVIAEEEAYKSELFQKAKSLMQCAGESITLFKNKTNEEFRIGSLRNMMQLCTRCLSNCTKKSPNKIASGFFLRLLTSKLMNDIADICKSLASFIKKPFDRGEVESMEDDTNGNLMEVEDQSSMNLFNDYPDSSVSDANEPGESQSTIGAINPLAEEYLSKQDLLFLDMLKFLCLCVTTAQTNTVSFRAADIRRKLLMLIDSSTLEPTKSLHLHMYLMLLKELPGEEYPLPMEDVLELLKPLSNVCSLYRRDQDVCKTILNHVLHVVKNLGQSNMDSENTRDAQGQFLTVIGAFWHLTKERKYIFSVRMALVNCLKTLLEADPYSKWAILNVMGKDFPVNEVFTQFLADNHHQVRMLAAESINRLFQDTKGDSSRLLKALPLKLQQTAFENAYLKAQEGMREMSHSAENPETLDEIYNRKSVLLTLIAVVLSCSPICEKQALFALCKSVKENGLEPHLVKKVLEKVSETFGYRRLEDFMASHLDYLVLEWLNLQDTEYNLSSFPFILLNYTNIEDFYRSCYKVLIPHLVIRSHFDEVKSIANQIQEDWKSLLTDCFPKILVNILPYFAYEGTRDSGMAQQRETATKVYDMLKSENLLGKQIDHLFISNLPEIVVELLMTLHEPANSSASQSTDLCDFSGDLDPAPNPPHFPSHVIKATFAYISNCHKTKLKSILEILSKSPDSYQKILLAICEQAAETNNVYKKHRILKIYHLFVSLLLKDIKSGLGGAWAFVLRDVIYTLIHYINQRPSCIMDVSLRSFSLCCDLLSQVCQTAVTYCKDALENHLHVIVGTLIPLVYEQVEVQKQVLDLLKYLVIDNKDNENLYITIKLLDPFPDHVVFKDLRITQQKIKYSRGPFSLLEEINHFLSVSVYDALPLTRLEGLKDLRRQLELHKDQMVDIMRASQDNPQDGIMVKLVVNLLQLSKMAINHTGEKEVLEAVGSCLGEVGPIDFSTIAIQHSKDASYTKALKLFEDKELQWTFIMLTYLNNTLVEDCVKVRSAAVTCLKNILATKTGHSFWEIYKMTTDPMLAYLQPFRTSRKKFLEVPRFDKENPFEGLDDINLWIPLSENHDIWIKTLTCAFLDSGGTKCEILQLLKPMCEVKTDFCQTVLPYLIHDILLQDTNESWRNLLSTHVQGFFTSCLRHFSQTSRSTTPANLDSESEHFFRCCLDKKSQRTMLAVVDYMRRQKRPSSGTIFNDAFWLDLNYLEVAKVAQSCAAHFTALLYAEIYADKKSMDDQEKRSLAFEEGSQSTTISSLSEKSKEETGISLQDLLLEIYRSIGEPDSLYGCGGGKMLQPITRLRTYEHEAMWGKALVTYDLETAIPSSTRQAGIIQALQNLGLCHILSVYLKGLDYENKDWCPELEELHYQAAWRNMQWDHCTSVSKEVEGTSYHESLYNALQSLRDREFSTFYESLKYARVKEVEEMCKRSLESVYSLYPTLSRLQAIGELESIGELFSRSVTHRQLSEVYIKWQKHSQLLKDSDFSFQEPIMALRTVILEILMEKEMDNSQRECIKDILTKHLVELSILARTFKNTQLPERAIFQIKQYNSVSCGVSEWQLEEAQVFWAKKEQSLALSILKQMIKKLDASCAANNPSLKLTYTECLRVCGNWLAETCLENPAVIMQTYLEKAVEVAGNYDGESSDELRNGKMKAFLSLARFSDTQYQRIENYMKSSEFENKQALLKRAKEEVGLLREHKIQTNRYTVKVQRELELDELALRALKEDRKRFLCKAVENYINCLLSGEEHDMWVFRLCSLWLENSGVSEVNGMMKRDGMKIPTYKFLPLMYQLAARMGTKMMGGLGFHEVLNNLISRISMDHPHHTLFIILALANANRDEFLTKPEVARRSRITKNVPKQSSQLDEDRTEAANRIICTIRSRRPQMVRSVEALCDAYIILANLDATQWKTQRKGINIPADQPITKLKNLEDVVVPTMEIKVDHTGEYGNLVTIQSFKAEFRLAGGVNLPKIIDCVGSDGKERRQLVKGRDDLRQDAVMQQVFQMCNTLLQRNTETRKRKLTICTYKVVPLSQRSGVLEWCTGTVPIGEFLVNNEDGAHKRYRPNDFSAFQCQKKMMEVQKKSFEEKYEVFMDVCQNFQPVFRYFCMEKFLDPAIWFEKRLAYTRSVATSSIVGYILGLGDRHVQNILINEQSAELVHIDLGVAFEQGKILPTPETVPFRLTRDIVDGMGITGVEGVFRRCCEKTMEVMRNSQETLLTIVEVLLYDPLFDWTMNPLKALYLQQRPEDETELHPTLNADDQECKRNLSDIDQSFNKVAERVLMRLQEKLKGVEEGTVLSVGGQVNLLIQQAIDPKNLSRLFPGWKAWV
Description: ATM inhibition test (phosphorylation of Chk2 generated by ionizing radiation, AlphaScreen SureFire). Format: cell-based. The conditions noted are these: phosphorylated Chk2 in NCI-H460 cells, ionizing radiation 8Gy, 1 hour after test compound treatment; read-out: ATM inhibitory activity. A digest of the protocol: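 Phosphorylated Chk2 read by AlphaScreen SureFire in human non-small cell lung cancer NCI-H460 cells, 1 hour after 8Gy ionizing radiation at 37° C. Compound added 1 hour before irradiation. Percent inhibition normalised between irradiated and non-irradiated drug-untreated signals.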
For the compound `CC(C(=O)Nc1ccc2c(c1)Sc1cccc(-c3cc(N4CCOCC4)cc(=O)[nH]3)c1S2)N1CCOCC1` (centres unmarked) [Example 1-8, 2-Morpholino-N-(6-(4-morpholino-6-oxo-1,6-dihydropyridin-2-yl)thianthren-2-yl)propanamide], the IC50 was in the range of 0.5 to 2 µM.
As for `O=c1cc(N2CCOCC2)cc(-c2cccc3c2Sc2ccc(NCCN4CCC(O)CC4)cc2S3)[nH]1` [Example 1-10-8, 6-(7-((2-(4-Hydroxypiperidin-1-yl)ethyl)amino)thianthren-1-yl)-4-morpholino pyridin-2(1H)-one], the IC50 lay in the range of 0.5 to 2 µM.
Next, `Cc1ccc(C(Nc2ccc3c(c2)Sc2cccc(-c4cc(N5CCOCC5)cc(=O)[nH]4)c2S3)[C@@H]2CN(C)CCO2)nc1` (single isomer, unassigned) [Example 1-56-10]: less than 0.1 µM; `CC(CN1CCN(Cc2ccncc2)CC1)Nc1ccc2c(c1)Sc1cccc(-c3cc(N4CCOCC4)cc(=O)[nH]3)c1S2` (centres unmarked) [Example 1-15-4, 4-Morpholino-6-(7-((1-(4-(pyridin-4-ylmethyl)piperazin-1-yl)propan-2-yl)amino)thianthren-1-yl)pyridin-2(1H)-one]: 0.1 to 0.5 µM; `CCC(Nc1ccc2c(c1)Sc1cccc(-c3cc(N4CCOCC4)cc(=O)[nH]3)c1O2)c1cncc(OC)c1` (centres unmarked) [Example 4-4-27, 6-(8-((1-(5-Methoxypyridin-3-yl)propyl)amino)phenoxathiin-4-yl)-4-morpholino pyridin-2(1 H)-one]: 0.1 to 0.5 µM.
As to `CC(CN1CCN(C)CC1)Nc1ccc2c(c1)Sc1cccc(-c3cc(=O)cc(N4CCOCC4)o3)c1S2` (centres unmarked) [Example 11-4, 2-(7-((1-(4-Methylpiperazin-1-yl)propan-2-yl)amino)thianthren-1-yl)-6-morpholino-4H-pyran-4-one], the IC50 lay within 0.1 to 0.5 µM.
The result for `O=c1cc(N2CCOCC2)cc(-c2cccc3c2Oc2ccc(NC4CCN(CCC5CCCCC5)CC4)cc2C3)[nH]1` [Example 2-30-5, 6-(7-((1-(2-Cyclohexylethyl)piperidin-4-yl)amino)-9H-xanthen-4-yl)-4-morpholino pyridin-2 (1H)-one] reads 0.5 to 2 µM; that for `COc1ncccc1CNc1ccc2c(c1)Cc1cccc(-c3cc(N4CCOCC4)cc(=O)[nH]3)c1O2` [Example 2-13-12, 6-(7-(((2-Methoxypyridin-3-yl)methyl)amino)-9H-xanthen-4-yl)-4-morpholino pyridin-2(1H)-one], 0.1 to 0.5 µM.
Next, `CC(C)(C)OC(=O)N1CCC[C@H]1C(=O)Nc1ccc2c(c1)Cc1cccc(-c3cc(N4CCOCC4)cc(=O)[nH]3)c1O2` [Example 2-20-2, (S)-tert-butyl 2-((5-(4-morpholino-6-oxo-1,6-dihydropyridin-2-yl)-9H-xanthen-2-yl)carbamoyl)pyrrolidine-1-carboxylate]: 0.5 to 2 µM.
The result for `O=c1cc(N2CCOCC2)cc(-c2cccc3c2Oc2ccc(NCc4ccnc(N5CCOCC5)n4)cc2C3)[nH]1` [Example 2-14-69, 4-Morpholino-6-(7-(((2-morpholinopyrimidin-4-yl)methyl)amino)-9H-xanthen-4-yl)pyridin-2(1H)-one] reads 0.1 to 0.5 µM; that for `COc1ccc(CCN2CCC(Nc3ccc4c(c3)Cc3ccnc(-c5cc(N6CCOCC6)cc(=O)[nH]5)c3O4)CC2)cc1` [Example 2-41-5, 6-(7-((1-(4-Methoxyphenethyl)piperidin-4-yl)amino)-5H-chromeno[2,3-c]pyridin-1-yl)-4-morpholino pyridin-2(1H)-one], 0.1 to 0.5 µM.
For the compound `CN1CCC(CNc2ccc3c(c2)Sc2cccc(-c4cc(N5CCOCC5)cc(=O)[nH]4)c2S3)CC1` [Example 1-12-31, 6-(7-(((1-Methylpiperidin-4-yl)methyl)amino)thianthren-1-yl)-4-morpholino pyridin-2(1H)-one], the IC50 was in the range of 0.1 to 0.5 µM.
Next, `CC(C)(C)OC(=O)N1CCC(C#N)(Nc2ccc3c(c2)Cc2cccc(-c4cc(N5CCOCC5)cc(=O)[nH]4)c2O3)CC1` [Example 2-26, tert-butyl 4-cyano-4-((5-(4-morpholino-6-oxo-1,6-dihydropyridin-2-yl)-9H-xanthen-2-yl)amino)piperidine-1-carboxylate]: 0.5 to 2 µM; `Cc1cccc(C(C)Nc2ccc3c(c2)Cc2ccnc(-c4cc(N5CCOCC5)cc(=O)[nH]4)c2O3)n1` (centres unmarked) [Example 2-42-6, 6-(7-((1-(6-Methylpyridin-2-yl)ethyl)amino)-5H-chromeno[2,3-c]pyridin-1-yl)-4-morpholinopyridin-2(1H)-one]: 0.1 to 0.5 µM; `COC[C@H](CN1[C@H](C)CCC[C@@H]1C)Nc1ccc2c(c1)Sc1cccc(-c3cc(N4CCOCC4)cc(=O)[nH]3)c1S2` [Example 1-46-13, 6-(7-(((S)-1-((2R,6S)-2,6- Dimethylpiperidin-1-yl)-3-methoxypropan-2-yl)amino)thianthren-1-yl)-4-morpholino pyridin-2(1H)-one]: 0.1 to 0.5 µM.
The result for `[N-]=[N+]=NCC(CN1CCOCC1)Nc1ccc2c(c1)Sc1cccc(-c3cc(N4CCOCC4)cc(=O)[nH]3)c1S2` (centres unmarked) [Example 9-1, 6-(7-((1-azide-3-morpholinopropan-2-yl)amino)thianthren-1-yl)-4-morpholinopyridin-2(1H)-one] reads 0.1 to 0.5 µM; that for `O=c1cc(N2CCOCC2)cc(-c2cccc3c2Oc2ccc(NCc4cnccc4Cl)cc2S3)[nH]1` [Example 4-4-18], 0.1 to 0.5 µM; that for `CN(C)CCNc1ccc2c(c1)Sc1cccc(-c3cc(N4CCOCC4)cc(=O)[nH]3)c1S2` [Example 1-10-4, 6-(7-((2-(Dimethylamino)ethyl)amino)thianthren-1-yl)-4-morpholinopyridin-2(1H)-one], 0.1 to 0.5 µM.
Take `COc1cnccc1CNc1ccc2c(c1)Sc1cccc(-c3cc(N4CCOCC4)cc(=O)[nH]3)c1O2` [Example 4-4-23, 6-(8-(((3-Methoxypyridin-4-yl)methyl)amino)phenoxathiin-4-yl)-4-morpholino pyridin-2(1H)-one]: the IC50 was 0.1 to 0.5 µM.
Next, `COc1cncc(CNc2ccc3c(c2)Cc2ccnc(-c4cc(N5CCOCC5)cc(=O)[nH]4)c2O3)c1` [Example 2-41-1, 6-(7-(((5-Methoxypyridin-3-yl)methyl)amino)-5H-chromeno[2,3-c]pyridin-1-yl)-4-morpholinopyridin-2(1H)-one]: 0.1 to 0.5 µM; `Cc1ccc(C(CCCN(C)C)Nc2ccc3c(c2)Sc2cccc(-c4cc(N5CCOCC5)cc(=O)[nH]4)c2S3)nc1` (single isomer, unassigned) [Example 1-51-4, 6-(7-((4-(Dimethylamino)-1-(5-methylpyridin-2-yl)butyl)amino)thianthren-1-yl)-4-morpholino pyridin-2(1H)-one]: 0.1 to 0.5 µM.
The result for `O=c1cc(N2CCOCC2)cc(-c2cccc3c2Oc2ccc(NCc4cncc(-c5cn[nH]c5)c4)cc2C3)[nH]1` [Example 2-8-2, 6-(7-(((5-(1H-pyrazol-4-yl)pyridin-3-yl)methyl)amino)-9H-xanthen-4-yl)-4-morpholinopyridin-2(1H)-one] reads 0.1 to 0.5 µM; that for `CC(Nc1ccc2c(c1)Cc1cccc(-c3cc(N4CCOCC4)cc(=O)[nH]3)c1O2)c1cc(Cl)ccn1` (single isomer, unassigned) [Example 2-14-89-1, 6-(7-((1-(4-chloropyridin-2-yl)ethyl)amino)-9H-xanthen-4-yl)-4-morpholinopyridin-2(1H)-one], 0.1 to 0.5 µM; that for `Cc1ccc(C(Nc2ccc3c(c2)Sc2cccc(-c4cc(N5CCOCC5)cc(=O)[nH]4)c2S3)[C@H]2CCCN2C)nc1` (single isomer, unassigned) [Example 1-56-5], less than 0.1 µM.
Next, `CC(Nc1ccc2c(c1)Cc1cccc(-c3cc(N4CCOCC4)cc(=O)[nH]3)c1O2)c1cncc(Cl)c1` (centres unmarked) [Example 2-14-27, 6-(7-((1-(5-Chloropyridin-3-yl)ethyl)amino)-9H-xanthen-4-yl)-4-morpholino pyridin-2(1H)-one]: 0.1 to 0.5 µM; `Cc1cccc(C(Nc2ccc3c(c2)Sc2cccc(-c4cc(N5CCOCC5)cc(=O)[nH]4)c2S3)C2CCNC2)n1` (centres unmarked) [Example 1-20-14, 6-(7-(((6-Methylpyridin-2-yl)(pyrrolidin-3-yl)methyl)amino)thianthren-1-yl)-4-morpholino pyridin-2(1H)-one]: 0.1 to 0.5 µM.
For `CC(Nc1ccc2c(c1)Sc1cccc(-c3cc(N4CCOCC4)cc(=O)[nH]3)c1S2)c1ncc(CN2CCCC2)cn1` (centres unmarked) [Example 1-12-94, 4-Morpholino-6-(7-((1-(5-(pyrrolidin-1-ylmethyl)pyrimidin-2-yl)ethyl)amino)thianthren-1-yl)pyridin-2 (1H)-one], the IC50 was in the range of 0.1 to 0.5 µM.
The result for `O=c1cc(N2CCOCC2)cc(-c2cccc3c2Sc2ccc(N[C@@H]4COC[C@@H]4N4CCOCC4)cc2S3)[nH]1` (relative stereo) [Example 1-61, cis-4-morpholino-6-(7-((4-morpholinotetrahydrofuran-3-yl)amino)thianthren-1-yl)pyridin-2(1 H)-one] reads less than 0.1 µM; that for `COc1ccc(CNc2ccc3c(c2)Sc2cccc(-c4cc(N5CCOCC5)cc(=O)[nH]4)c2O3)cn1` [Example 4-8-11, 6-(8-(((6-Methoxypyridin-3-yl)methyl)amino)phenoxathiin-4-yl)-4-morpholino pyridin-2(1H)-one], 0.1 to 0.5 µM.
Take `CN(c1ccc2c(c1)Sc1cccc(-c3cc(N4CCOCC4)cc(=O)[nH]3)c1S2)C1CCCNC1` (centres unmarked) [Example 1-30, 6-(7-(methyl(piperidin-3-yl)amino)thianthren-1-yl)-4-morpholinopyridin-2(1H)-one]: the IC50 fell in the range of 0.5 to 2 µM.
For `O=c1cc(N2CCOCC2)cc(-c2cccc3c2Sc2ccc(NCc4ncccn4)cc2C3)[nH]1` [Example 3-8-6, 4-Morpholino-6-(7-((pyrimidin-2-ylmethyl)amino)-9H-thioxanthen-4-yl) pyridin-2(1H)-one], the IC50 lay in the range of 0.1 to 0.5 µM.
The result for `COC1CCN(CCNc2ccc3c(c2)Sc2cccc(-c4cc(N5CCOCC5)cc(=O)[nH]4)c2S3)CC1` [Example 1-10-15, 6-(7-((2-(4-Methoxypiperidin-1-yl)ethyl)amino)thianthren-1-yl)-4-morpholino pyridin-2(1H)-one] reads 0.1 to 0.5 µM.

For the origin of these results see patent US9586951B2 (FUJIFILM Corporation, priority 2013, dated 2017).
